Reference: patent publication US6201116A, “Halide indicators” (The Regents of the University of California, priority 1999, dated 2001)

Columns and labels:
cells [1] = experiment: Indicator leakage / cytoplasmic retention; format: cell-based
Method: Fluorescence microscopy. Fluorescence microscopy measurements were performed as described previously (Chao et al., 1989). Briefly, coverglasses were mounted in a 0.5 ml perfusion chamber in which the cell-free glass surface made contact with an oil immersion objective (Nikon ×40 magnification, numerical aperture[NA] 1.3). Cell fluorescence was excited at 365±10 nm (SPQ) or 420 nm±10 nm (LZQ and LMQ). Emitted fluorescence was detected by a photomultiplier in a Nikon inverted epifluorescence microscope using a 410 nm dichroic mirror and 420 nm barrier filter (SPQ) or a 455 nm dichroic mirror and 500 nm barrier filter (LZQ). For cells colabeled with SPQ and LZQ, SPQ fluorescence was excited at 365±10 nm and detected using a 410 nm dichroic mirror and 455±30 nm interference filter. Confocal fluorescence micrographs were obtained using a Nipkow wheel confocal microscope and cooled CCD camera detector using a ×60 oil immersion objective (Nikon, NA 1.4). LZQ-labeled cells were viewed using a fluorescein filter set (excitation 480±15 nm, emission 520±20 nm).
A time course of LZQ fluorescence during perfusion with physiological saline at 23° C. was generated. A small group of 20-30 cells was illuminated continuously and fluorescence was detected by a photomultiplier using an ×40, 1.3 NA objective. Cellular fluorescence decreased slowly at a rate of 2.5% per hour. To determine the relative contributions of indicator leakage vs. photobleaching to the slow decline in fluorescence, the perfused cells were illuminated intermittently. […] Background fluorescence (in non-labeled cells) was generally <5% of the fluorescence of LZQ-labeled cells.

cells [2] = experiment: Toxicity in assays of cell growth; format: cell-based; settings: 2 mM in culture medium for 72 h
Method: LZQ and LMQ were loaded into cells efficiently by hypotonic shock or passive incubation. […] As was found for SPQ, LZQ and LMQ were non-toxic to cells in assays of cell growth (2 mM in culture medium for 72 h).

[3] = In vitro fluorescence quenching by other ions (Stern-Volmer); format: physicochemical
Method: Computations. In vitro fluorescence quenching studies were carried out at peak excitation and emission wavelengths. Microliter aliquots of the sodium salt of the quenching anion (1 M) were added to indicator solution in 5 mM sodium phosphate (pH 7.2, unless indicated otherwise). Fluorescence intensities in the absence (Fo) and presence (F) of quencher anion ([Q]) were measured to give the Stem-Volmer constant (Kq) as defined by: Fo /F=1+Kq [Q].

CFTR = experiment: I^-/NO3^- exchange in forskolin-stimulated CFTR-expressing cells; format: cell-based
Method: Transport measurements. Cells were labeled with LZQ or SPQ by hypotonic shock (loading buffer/water 1:1 containing 2 mM LZQ or 7.5 mM SPQ) for 5 min at room temperature or by overnight incubation with indicators in the cell culture medium. Extracellular indicator was removed by washing just prior to measurements. For fluorescence microscopy, glass coverslips were then mounted in a perfusion chamber (flow ~2 ml/min) in which solutions were exchanged using a 4-way valve. For microplate reader measurements, cells in 96-well plates were bathed in […] of the `1st buffer` (see Table 3) and […] of the Cl^- -containing, I^- -free solution was injected into the well to drive Cl^- /I^- exchange (protocol 1). For stimulation of CFTR using protocol 2, […] of a 1:8 mixture of the 1st buffer and the 2nd buffer containing […] forskolin, 2 mM CPT-cAMP and […] IBMX was added.
For determination of the absolute I^- transport rates, the time course of intracellular [I^- ] was computed from the time course of SPQ or LZQ fluorescence using the modified Stem-Volmer equation [I^- ]={([Fo -Fb ]/[F-Fb ])-1}/KI, where Fo is fluorescence intensity in the absence of I^-, Fb is background fluorescence of unlabeled cells, and KI the intracellular quenching constant for I^- (see Results). I^- transport rates were calculated from the slope of a linear regression of the first 10 time points after changing perfusate composition.
The utility of LZQ for functional measurement of CFTR expression was tested. […] A comparison of data obtained for cells loaded with LZQ and SPQ initially loaded with I^-, followed by replacement of I^- with NO3^- in the absence of forskolin, followed by addition of forskolin was also performed. The initial rates of forskolin-stimulated I^- efflux (SPQ: 0.09±0.02 mM/s; LZQ: 0.08±0.01 mM/s) were similar. Measurements of Cl^- /NO3^- exchange were also carried out by measuring SPQ fluorescence using cells labeled with SPQ alone vs. cells colabeled with SPQ and LZQ.

[O-]c1nc2c(N[C@@H]3O[C@H](CO)[C@@H](O)[C@H]3O)ncnc2[n+]2ccccc12 [I, 4-(β-D-ribofuranosylamino)-pyrido [2,1-h] pteridin-11-ium-5-olate]
cytoplasmic retention vs. LMQ (cells [1]): better cytoplasmic retention properties than LMQ | leakage out of cells (cells [1]; microplate section): low rate | rate of decrease of cellular fluorescence (cells [1]; perfusion with physiological saline, 23° C.): 2.5 % per hour | toxicity to cells (cell growth) (cells [2]): non-toxic | Stern-Volmer constant, K^+ ([3]; K^+): < 1 M⁻¹ | Stern-Volmer constant, NO3^- ([3]; NO3^-): < 1 M⁻¹ | Stern-Volmer constant, Na^+ ([3]; Na^+): < 1 M⁻¹ | Stern-Volmer constant, acetate ([3]; acetate): < 1 M⁻¹ | Stern-Volmer constant, phosphate ([3]; phosphate): < 1 M⁻¹ | initial rate of forskolin-stimulated I^- efflux (CFTR; I^- replaced by NO3^- without forskolin, then forskolin added): 0.08 ± 0.01 mM/s | computed I^- efflux rate (CFTR; forskolin-stimulated CFTR-expressing cells, I^-/NO3^- exchange): 0.09 ± 0.03 mM/s | computed I^- influx rate (CFTR; forskolin-stimulated CFTR-expressing cells, I^-/NO3^- exchange, S.E., n=3): 0.25 ± 0.01 mM/s
